{"source": "PubChem BioAssay AID1963977", "about": "(Molecular Pharmacology Branch, DTP, NCI, 2024);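 further: spheroids exposed to agents for seven days before luminescence read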;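 on viability, T/C: luminescent signal used as a stand-in for spheroid viability; percent viability relative to DMSO vehicle control wells taken as 100%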", "tested_on": "624824-186-R-J3-PDC multicell spheroids, viability", "assay": "Anticancer human tumor 624824-186-R-J3-PDC patient-derived colon adenocarcinoma cell line growth inhibition [PI3K]", "settings": "for viability, T/C: stronger effect = lower value", "summary_of_the_method": "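Viability of mixed-cell spheroids was determined after exposure to pairwise combinations, one partner being inavolisib, alpelisib, duvelisib or copanlisib. Highest tested concentration matched clinical Cmax where known and 10 microM where not, descending in half-log steps.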", "key": {"[1]": {"settings": "curve of first compound, second compound 0.0316 µM"}, "[2]": {"settings": "curve of first compound, second compound 0.1 µM"}, "[3]": {"settings": "curve of first compound, second compound 0.316 µM"}, "[4]": {"settings": "curve of first compound, second compound 1 µM"}, "[5]": {"settings": "second compound 0.0316 µM, first compound 0.0316 µM"}, "[6]": {"settings": "second compound 0.0316 µM, first compound 0.1 µM"}, "[7]": {"settings": "second compound 0.1 µM, first compound 0.0316 µM"}, "[8]": {"settings": "second compound 0.1 µM, first compound 0.1 µM"}, "[9]": {"settings": "second compound 0.316 µM, first compound 0.0316 µM"}, "[10]": {"settings": "second compound 0.316 µM, first compound 0.1 µM"}, "[11]": {"settings": "second compound 1 µM, first compound 0.0316 µM"}, "[12]": {"settings": "second compound 1 µM, first compound 0.1 µM"}}, "data": [{"smiles": "CC(C)n1nc(-c2ccc3oc(N)nc3c2)c2c(N)ncnc21", "note": "+ Cc1nc(NC(=O)N2CCCC2C(N)=O)sc1-c1ccnc(C(C)(C)C(F)(F)F)c1", "values": [{"measurement": "IC50", "setting": "[1]", "result": "> 100", "unit": "nM"}, {"measurement": "IC50", "setting": "[2]", "result": 98.4, "unit": "nM"}, {"measurement": "IC50", "setting": "[3]", "result": 78.7, "unit": "nM"}, {"measurement": "IC50", "setting": "[4]", "result": 64.4, "unit": "nM"}, {"measurement": "IC50", "setting": "curve of first compound, second compound 3.16 µM", "result": 28.6, "unit": "nM"}, {"measurement": "IC50", "setting": "curve of first compound, second compound 10 µM", "result": 15.5, "unit": "nM"}, {"measurement": "viability, T/C", "setting": "second compound 0.0316 µM, first compound 0.000316 µM", "result": 110, "unit": "%"}, {"measurement": "viability, T/C", "setting": "second compound 0.0316 µM, first compound 0.001 µM", "result": 104, "unit": "%"}, {"measurement": "viability, T/C", "setting": "second compound 0.0316 µM, first compound 0.00316 µM", "result": 112, "unit": "%"}, {"measurement": "viability, T/C", "setting": "second compound 0.0316 µM, first compound 0.01 µM", "result": 99.1, "unit": "%"}, {"measurement": "viability, T/C", "setting": "[5]", "result": 91.3, "unit": "%"}, {"measurement": "viability, T/C", "setting": "[6]", "result": 53.3, "unit": "%"}, {"measurement": "viability, T/C", "setting": "second compound 0.1 µM, first compound 0.000316 µM", "result": 103, "unit": "%"}, {"measurement": "viability, T/C", "setting": "second compound 0.1 µM, first compound 0.001 µM", "result": 101, "unit": "%"}, {"measurement": "viability, T/C", "setting": "second compound 0.1 µM, first compound 0.00316 µM", "result": 101, "unit": "%"}, {"measurement": "viability, T/C", "setting": "second compound 0.1 µM, first compound 0.01 µM", "result": 110, "unit": "%"}, {"measurement": "viability, T/C", "setting": "[7]", "result": 97.8, "unit": "%"}, {"measurement": "viability, T/C", "setting": "[8]", "result": 48.9, "unit": "%"}, {"measurement": "viability, T/C", "setting": "second compound 0.316 µM, first compound 0.000316 µM", "result": 108, "unit": "%"}, {"measurement": "viability, T/C", "setting": "second compound 0.316 µM, first compound 0.001 µM", "result": 101, "unit": "%"}, {"measurement": "viability, T/C", "setting": "second compound 0.316 µM, first compound 0.00316 µM", "result": 105, "unit": "%"}, {"measurement": "viability, T/C", "setting": "second compound 0.316 µM, first compound 0.01 µM", "result": 100, "unit": "%"}, {"measurement": "viability, T/C", "setting": "[9]", "result": 89.2, "unit": "%"}, {"measurement": "viability, T/C", "setting": "[10]", "result": 40, "unit": "%"}, {"measurement": "viability, T/C", "setting": "second compound 1 µM, first compound 0.000316 µM", "result": 104, "unit": "%"}, {"measurement": "viability, T/C", "setting": "second compound 1 µM, first compound 0.001 µM", "result": 105, "unit": "%"}, {"measurement": "viability, T/C", "setting": "second compound 1 µM, first compound 0.00316 µM", "result": 97.2, "unit": "%"}, {"measurement": "viability, T/C", "setting": "second compound 1 µM, first compound 0.01 µM", "result": 91.3, "unit": "%"}, {"measurement": "viability, T/C", "setting": "[11]", "result": 77, "unit": "%"}, {"measurement": "viability, T/C", "setting": "[12]", "result": 34, "unit": "%"}, {"measurement": "viability, T/C", "setting": "second compound 3.16 µM, first compound 0.000316 µM", "result": 87.3, "unit": "%"}, {"measurement": "viability, T/C", "setting": "second compound 3.16 µM, first compound 0.001 µM", "result": 94.6, "unit": "%"}, {"measurement": "viability, T/C", "setting": "second compound 3.16 µM, first compound 0.00316 µM", "result": 89.5, "unit": "%"}, {"measurement": "viability, T/C", "setting": "second compound 3.16 µM, first compound 0.01 µM", "result": 72.9, "unit": "%"}, {"measurement": "viability, T/C", "setting": "second compound 3.16 µM, first compound 0.0316 µM", "result": 48.5, "unit": "%"}, {"measurement": "viability, T/C", "setting": "second compound 3.16 µM, first compound 0.1 µM", "result": 30.4, "unit": "%"}, {"measurement": "viability, T/C", "setting": "second compound 10 µM, first compound 0.000316 µM", "result": 67.5, "unit": "%"}, {"measurement": "viability, T/C", "setting": "second compound 10 µM, first compound 0.001 µM", "result": 68.4, "unit": "%"}, {"measurement": "viability, T/C", "setting": "second compound 10 µM, first compound 0.00316 µM", "result": 68.1, "unit": "%"}, {"measurement": "viability, T/C", "setting": "second compound 10 µM, first compound 0.01 µM", "result": 52.8, "unit": "%"}, {"measurement": "viability, T/C", "setting": "second compound 10 µM, first compound 0.0316 µM", "result": 42, "unit": "%"}, {"measurement": "viability, T/C", "setting": "second compound 10 µM, first compound 0.1 µM", "result": 25.7, "unit": "%"}]}, {"smiles": "CC(Nc1ncnc2nc[nH]c12)c1cc2cccc(Cl)c2c(=O)n1-c1ccccc1", "note": "(stereo not given)", "values": [{"measurement": "viability, T/C", "setting": "compound 0.0316 µM", "result": "103% [middle of 8 runs]"}, {"measurement": "viability, T/C", "setting": "compound 0.316 µM", "result": "106% [middle of 8 runs]"}, {"measurement": "viability, T/C", "setting": "compound 1 µM", "result": "108% [middle of 8 runs]"}, {"measurement": "viability, T/C", "setting": "compound 3.16 µM", "result": "106% [middle of 8 runs]"}, {"measurement": "viability, T/C", "setting": "compound 10 µM", "result": "94.7% [middle of 8 runs]"}, {"measurement": "IC50", "setting": "compound alone, run of 04/25/2023", "result": "> 10000", "unit": "nM"}]}, {"smiles": "CNC(=O)c1ccc(N2C(=S)N(c3ccc(C#N)c(C(F)(F)F)c3)C(=O)C2(C)C)cc1F", "note": "+ COc1c(OCCCN2CCOCC2)ccc2c3n(c(=NC(=O)c4cnc(N)nc4)nc12)CCN3", "values": [{"measurement": "IC50", "setting": "curve of first compound, second compound 0.00316 µM", "result": "> 10000", "unit": "nM"}, {"measurement": "IC50", "setting": "curve of first compound, second compound 0.01 µM", "result": "> 10000", "unit": "nM"}, {"measurement": "IC50", "setting": "[1]", "result": "> 10000", "unit": "nM"}, {"measurement": "IC50", "setting": "[2]", "result": "> 10000", "unit": "nM"}, {"measurement": "IC50", "setting": "[3]", "result": "< 31.6", "unit": "nM"}, {"measurement": "IC50", "setting": "[4]", "result": "< 31.6", "unit": "nM"}, {"measurement": "viability, T/C", "setting": "second compound 0.00316 µM, first compound 0.0316 µM", "result": 116, "unit": "%"}, {"measurement": "viability, T/C", "setting": "second compound 0.00316 µM, first compound 0.1 µM", "result": 92.3, "unit": "%"}, {"measurement": "viability, T/C", "setting": "second compound 0.00316 µM, first compound 0.316 µM", "result": 114, "unit": "%"}, {"measurement": "viability, T/C", "setting": "second compound 0.00316 µM, first compound 1 µM", "result": 103, "unit": "%"}, {"measurement": "viability, T/C", "setting": "second compound 0.00316 µM, first compound 3.16 µM", "result": 105, "unit": "%"}, {"measurement": "viability, T/C", "setting": "second compound 0.00316 µM, first compound 10 µM", "result": 107, "unit": "%"}, {"measurement": "viability, T/C", "setting": "second compound 0.01 µM, first compound 0.0316 µM", "result": 102, "unit": "%"}, {"measurement": "viability, T/C", "setting": "second compound 0.01 µM, first compound 0.1 µM", "result": 94.5, "unit": "%"}, {"measurement": "viability, T/C", "setting": "second compound 0.01 µM, first compound 0.316 µM", "result": 101, "unit": "%"}, {"measurement": "viability, T/C", "setting": "second compound 0.01 µM, first compound 1 µM", "result": 94, "unit": "%"}, {"measurement": "viability, T/C", "setting": "second compound 0.01 µM, first compound 3.16 µM", "result": 104, "unit": "%"}, {"measurement": "viability, T/C", "setting": "second compound 0.01 µM, first compound 10 µM", "result": 98, "unit": "%"}, {"measurement": "viability, T/C", "setting": "[5]", "result": 91.1, "unit": "%"}, {"measurement": "viability, T/C", "setting": "[6]", "result": 102, "unit": "%"}, {"measurement": "viability, T/C", "setting": "second compound 0.0316 µM, first compound 0.316 µM", "result": 91.2, "unit": "%"}, {"measurement": "viability, T/C", "setting": "second compound 0.0316 µM, first compound 1 µM", "result": 93.2, "unit": "%"}, {"measurement": "viability, T/C", "setting": "second compound 0.0316 µM, first compound 3.16 µM", "result": 88.9, "unit": "%"}, {"measurement": "viability, T/C", "setting": "second compound 0.0316 µM, first compound 10 µM", "result": 88.8, "unit": "%"}, {"measurement": "viability, T/C", "setting": "[7]", "result": 78, "unit": "%"}, {"measurement": "viability, T/C", "setting": "[8]", "result": 74.5, "unit": "%"}, {"measurement": "viability, T/C", "setting": "second compound 0.1 µM, first compound 0.316 µM", "result": 89.4, "unit": "%"}, {"measurement": "viability, T/C", "setting": "second compound 0.1 µM, first compound 1 µM", "result": 71.8, "unit": "%"}, {"measurement": "viability, T/C", "setting": "second compound 0.1 µM, first compound 3.16 µM", "result": 73, "unit": "%"}, {"measurement": "viability, T/C", "setting": "second compound 0.1 µM, first compound 10 µM", "result": 72.5, "unit": "%"}, {"measurement": "viability, T/C", "setting": "[9]", "result": 49.2, "unit": "%"}, {"measurement": "viability, T/C", "setting": "[10]", "result": 50.8, "unit": "%"}, {"measurement": "viability, T/C", "setting": "second compound 0.316 µM, first compound 0.316 µM", "result": 47.5, "unit": "%"}, {"measurement": "viability, T/C", "setting": "second compound 0.316 µM, first compound 1 µM", "result": 48.5, "unit": "%"}, {"measurement": "viability, T/C", "setting": "second compound 0.316 µM, first compound 3.16 µM", "result": 47.6, "unit": "%"}, {"measurement": "viability, T/C", "setting": "second compound 0.316 µM, first compound 10 µM", "result": 34.1, "unit": "%"}, {"measurement": "viability, T/C", "setting": "[11]", "result": 26.7, "unit": "%"}, {"measurement": "viability, T/C", "setting": "[12]", "result": 31, "unit": "%"}, {"measurement": "viability, T/C", "setting": "second compound 1 µM, first compound 0.316 µM", "result": 26.7, "unit": "%"}, {"measurement": "viability, T/C", "setting": "second compound 1 µM, first compound 1 µM", "result": 27.5, "unit": "%"}, {"measurement": "viability, T/C", "setting": "second compound 1 µM, first compound 3.16 µM", "result": 26.2, "unit": "%"}, {"measurement": "viability, T/C", "setting": "second compound 1 µM, first compound 10 µM", "result": 23.9, "unit": "%"}]}]}
